# Measurements reported in patent publication US20090087845A1, “Genetic Markers Of True Low Birth Weight” (priority 2005, published 2009).
# Tested on: placental gene expression
smiles,measurement,setting,value
CCO [alcohol],"Mean 5%, probe set 1385639_at","5% alcohol group, Mean Contr 4.981165",4.504
same,"Mean 5%, Inpp1 (1394340_at)","5% alcohol group, Mean Contr 5.05511",4.704
same,"Mean 5%, RT1-Aw2 (1379496_at)","5% alcohol group, Mean Contr 5.19844",4.65
same,"Mean 5%, Trp53rk_predicted (1379488_at)","5% alcohol group, Mean Contr 5.228085",4.923
same,"Mean 5%, Enpp5 (1388926_at)","5% alcohol group, Mean Contr 5.277582",4.894
same,"Mean 5%, Prdm2_mapped (1381229_at)","5% alcohol group, Mean Contr 5.346211",4.872
same,"Mean 5%, RGD1564011_predicted (1375191_at)","5% alcohol group, Mean Contr 5.471081",5.008
same,"Mean 5%, Centa2 (1369725_at)","5% alcohol group, Mean Contr 5.497342",5.089
same,"Mean 5%, Transcribed locus (1383789_at)","5% alcohol group, Mean Contr 5.574571",5.342
same,"Mean 5%, Transcribed locus (1392286_at)","5% alcohol group, Mean Contr 5.585624",5.242
same,"Mean 5%, Mcpt6 (1387334_at)","5% alcohol group, Mean Contr 5.601581",5.206
same,"Mean 5%, Ggps1 (1377866_a_at)","5% alcohol group, Mean Contr 5.646626",5.273
same,"Mean 5%, Transcribed locus (1389718_at)","5% alcohol group, Mean Contr 5.751838",5.09
same,"Mean 5%, Transcribed locus (1377021_at)","5% alcohol group, Mean Contr 5.80011",5.149
same,"Mean 5%, Cp (1368418_a_at)","5% alcohol group, Mean Contr 5.816824",5.332
same,"Mean 5%, LOC303515 (1383571_at)","5% alcohol group, Mean Contr 5.867879",5.339
same,"Mean 5%, Transcribed locus (1389111_at)","5% alcohol group, Mean Contr 5.875325",5.42
same,"Mean 5%, Transcribed locus (1393980_at)","5% alcohol group, Mean Contr 5.991591",5.335
same,"Mean 5%, Pcmtd2_predicted (1374454_at)","5% alcohol group, Mean Contr 6.083112",5.464
same,"Mean 5%, Plek (1390687_at)","5% alcohol group, Mean Contr 6.105485",5.536
same,"Mean 5%, Cdca7 (1374540_at)","5% alcohol group, Mean Contr 6.195992",5.287
same,"Mean 5%, Cul2_predicted (1378127_at)","5% alcohol group, Mean Contr 6.258107",5.629
same,"Mean 5%, Pex6 (1368264_at)","5% alcohol group, Mean Contr 6.259265",5.664
same,"Mean 5%, St3gal3 (1373607_at)","5% alcohol group, Mean Contr 6.298338",5.956
same,"Mean 5%, Kbtbd4_predicted (1374614_at)","5% alcohol group, Mean Contr 6.314496",5.868
same,"Mean 5%, Phyh (1393245_at)","5% alcohol group, Mean Contr 6.483711",5.646
same,"Mean 5%, LOC287533 (1373627_at)","5% alcohol group, Mean Contr 6.526312",5.83
same,"Mean 5%, Transcribed locus (1388465_at)","5% alcohol group, Mean Contr 6.549543",6.133
same,"Mean 5%, Mss4 (1376745_at)","5% alcohol group, Mean Contr 6.629539",6.082
same,"Mean 5%, Plag1 (1391714_at)","5% alcohol group, Mean Contr 6.670053",5.859
same,"Mean 5%, Sumf1_predicted (1389833_at)","5% alcohol group, Mean Contr 6.839621",6.464
same,"Mean 5%, Polr3e_predicted (1374415_at)","5% alcohol group, Mean Contr 6.849002",6.356
same,"Mean 5%, RGD1308959 (1399108_at)","5% alcohol group, Mean Contr 6.859582",6.437
same,"Mean 5%, Wig1 (1387021_at)","5% alcohol group, Mean Contr 6.895168",6.437
same,"Mean 5%, probe set 1379314_at","5% alcohol group, Mean Contr 6.970231",6.195
same,"Mean 5%, Ddx59 (1383635_at)","5% alcohol group, Mean Contr 6.981191",6.627
same,"Mean 5%, Rnd3 (1394077_at)","5% alcohol group, Mean Contr 7.018906",6.516
same,"Mean 5%, probe set 1393037_at","5% alcohol group, Mean Contr 7.020197",6.711
same,"Mean 5%, Slc39a4_predicted (1374366_at)","5% alcohol group, Mean Contr 7.252498",6.553
same,"Mean 5%, RGD1305243_predicted (1374076_at)","5% alcohol group, Mean Contr 7.300542",6.98
same,"Mean 5%, Transcribed locus (1393310_at)","5% alcohol group, Mean Contr 7.364799",6.579
same,"Mean 5%, Gusb (1367901_at)","5% alcohol group, Mean Contr 7.420203",6.975
same,"Mean 5%, probe set 1392953_at","5% alcohol group, Mean Contr 7.435411",6.789
same,"Mean 5%, Crsp9_predicted (1377263_at)","5% alcohol group, Mean Contr 7.471023",6.737
same,"Mean 5%, probe set 1389582_at","5% alcohol group, Mean Contr 7.588214",6.742
same,"Mean 5%, Transcribed locus (1393226_at)","5% alcohol group, Mean Contr 7.705027",6.779
same,"Mean 5%, RGD1565289_predicted (1375297_at)","5% alcohol group, Mean Contr 7.731478",6.938
same,"Mean 5%, Zfp207 (1394591_at)","5% alcohol group, Mean Contr 8.125942",7.43
same,"Mean 5%, Akr7a2 (1367843_at)","5% alcohol group, Mean Contr 8.276972",7.547
same,"Mean 5%, Tparl (1373392_at)","5% alcohol group, Mean Contr 8.308305",8.164
same,"Mean 5%, Mcts1 (1388660_at)","5% alcohol group, Mean Contr 8.623529",8.191
same,"Mean 5%, Hadhsc (1370237_at)","5% alcohol group, Mean Contr 8.793343",8.481
same,"Mean 5%, Asah1 (1374770_at)","5% alcohol group, Mean Contr 9.074708",8.62
same,"Mean 5%, Arts1 (1368356_a_at)","5% alcohol group, Mean Contr 9.55972",9.182
same,"Mean 5%, Ndufb5_predicted (1388304_at)","5% alcohol group, Mean Contr 10.12286",9.747
same,"Mean 5%, MGC72992 (1389325_at)","5% alcohol group, Mean Contr 10.24563",9.919
same,"Mean 5%, Vps35_mapped (1372806_at)","5% alcohol group, Mean Contr 10.46183",10.13
same,"Mean 10%, probe set 1385639_at","10% alcohol group, Mean Contr 4.981165",4.259
same,"Mean 10%, Inpp1 (1394340_at)","10% alcohol group, Mean Contr 5.05511",4.269
same,"Mean 10%, RT1-Aw2 (1379496_at)","10% alcohol group, Mean Contr 5.19844",4.376
same,"Mean 10%, Trp53rk_predicted (1379488_at)","10% alcohol group, Mean Contr 5.228085",4.494
same,"Mean 10%, Enpp5 (1388926_at)","10% alcohol group, Mean Contr 5.277582",4.551
same,"Mean 10%, Prdm2_mapped (1381229_at)","10% alcohol group, Mean Contr 5.346211",4.661
same,"Mean 10%, RGD1564011_predicted (1375191_at)","10% alcohol group, Mean Contr 5.471081",4.639
same,"Mean 10%, Centa2 (1369725_at)","10% alcohol group, Mean Contr 5.497342",4.692
same,"Mean 10%, Transcribed locus (1383789_at)","10% alcohol group, Mean Contr 5.574571",4.986
same,"Mean 10%, Transcribed locus (1392286_at)","10% alcohol group, Mean Contr 5.585624",4.791
same,"Mean 10%, Mcpt6 (1387334_at)","10% alcohol group, Mean Contr 5.601581",4.849
same,"Mean 10%, Ggps1 (1377866_a_at)","10% alcohol group, Mean Contr 5.646626",4.808
same,"Mean 10%, Transcribed locus (1389718_at)","10% alcohol group, Mean Contr 5.751838",4.745
same,"Mean 10%, Transcribed locus (1377021_at)","10% alcohol group, Mean Contr 5.80011",4.752
same,"Mean 10%, Cp (1368418_a_at)","10% alcohol group, Mean Contr 5.816824",5.05
same,"Mean 10%, LOC303515 (1383571_at)","10% alcohol group, Mean Contr 5.867879",5.002
same,"Mean 10%, Transcribed locus (1389111_at)","10% alcohol group, Mean Contr 5.875325",4.794
same,"Mean 10%, Transcribed locus (1393980_at)","10% alcohol group, Mean Contr 5.991591",4.943
same,"Mean 10%, Pcmtd2_predicted (1374454_at)","10% alcohol group, Mean Contr 6.083112",4.612
same,"Mean 10%, Plek (1390687_at)","10% alcohol group, Mean Contr 6.105485",4.933
same,"Mean 10%, Cdca7 (1374540_at)","10% alcohol group, Mean Contr 6.195992",4.948
same,"Mean 10%, Cul2_predicted (1378127_at)","10% alcohol group, Mean Contr 6.258107",5.032
